In brackets after ≈: the same amount, converted by molar mass. Several values for one entry are separate records, joined by “and”; a condition that tells them apart may be missing. Identical values can stand only once. Like-named read-outs stand apart in the source and are kept apart here.
Tests used:
Format in all cases: cell-based
[1] = system: gamma interferon production; experiment: Gamma interferon production in spleenocyte of mice; conditions: versus positive control PMA-Ionomycin combination
Excerpt: Referring again to FIG. 14, activated CD8+ cells are reported to produce high levels of gamma interferon, which may be involved in the anti-HIV-1 immune responses, contributing to both control of viral spread and concomitant lymphoid follicular lyses. […] This finding may have a far-reaching implication and relevant in the restoration of immune system competence.

HIV-1 (P2) = experiment: Antiviral drug assay in PBMC (supernatant p24); conditions: for p24 testing data, single readings: listed as H2K-1001 (900); for EC50: Human immunodeficiency virus 1, PBMC
Method: Drug efficacy was determined by the production of supernatant HIV-1 p24. Drug-induced cytotoxicity was determined by the metabolic reduction of tetrazolium salts (MTS; Promega).
The antiviral drug or agent of the invention, H2K-1001 (90i), was solubilized. PBMCs, stimulated with PHA (phytohemagglutinin) for three days were employed throughout. Virus stocks (U.S. Clinical isolates) grown in PBMCs only, that past the necessary quality controls (i.e., replicate to high titer in PBMCs and meet the requirements as to genotype and phenotype) were rapidly thawed and maintained on ice until required for infection.
Virus and cell controls were included on each test plate. Virus was added after cells and drugs were mixed. Cell, drug and virus containing cultures were incubated for seven (7) days with an interim feeding at day three or four.
Supernatants were sampled at seven days for p24 determination by antigen capture ELISA. Cytotoxicity was measured by the metabolic reduction of the tetrazolium salt according to the manufacturer’s (Promega) recommendations.
The drug analysis reports from these studies are provided below in Tables 7-10. Efficacy (EC50) and viability (IC50) determinations were made using Cho and Cho Median Effect Equation, as noted above. Efficacy is expressed as the 50% effective concentration (EC50) and drug induced toxicity as the 50% inhibitory concentration (IC50).

[2] = system: monotropic HIV-1 (macbal); experiment: Antiretroviral effect against monotropic/neurotropic HIV-1 in monocyte; conditions: monotropic HIV-1 (macbal) in monocyte
HIV-1 (RF) = experiment: microbe, parasite or virus in culture; conditions: for Efficacy testing, optical density of single wells: listed as R2K18001 (90I)
Excerpt: This assay was used to test the effectiveness of anti-HIV drug monotherapy in the established T-cell line CEM-SS infected with HIV-1RF, HIV-1IIIb, HIV-2ROD, or other cytolytic variants of HIV.
The drugs were solubilized in DMSO (dimethyl sulfoxide). […] CEM-SS cells were in logarithmic growth phase at the time of experimentation. Virus (HIV-1RF) stocks that past the necessary quality controls (killing effect on the type of cells used, limited variability, etc) were thawed and maintained on ice until required for addition.
Half-log serial dilutions of the antiviral agent or compound of the invention, H2K1001 (90i), were made in tissue culture media (RPMI 1640 without phenol red, supplemented with 10% heat inactivated fetal bovine serum, 1% L-Glutamine, 1% Pen/Strep and 50 ug/ml gentimycin). Virus, cell, drug and diluent (ethanol) controls were included for these tests. Virus was added after cells and drugs were mixed. Cell, drug, and virus containing cultures were incubated for six (6) days without additional feeding at which time the cultures were evaluated macroscopically and microscopically for cell toxicity, and the tetrazolium salt […] was added for quantitation by the colorimetric determination of formazan production (optical density).
Drug efficacy and cytotoxicity effects were determined six days after infection by the metabolic reduction of the tetrazolium salt XTT to its‘ formazan by surviving cells and was quantitated by determination of optical density at 450 nm with background subtraction at 650 nm (Tables 1-4).
The drug plate analysis reports from this assay are provided below in Tables 1-4. Calculated endpoints (EC50, etc.) were determined using Cho and Cho Median Effect Equation (Daids Virology Manual for HIV Laboratories, Compiled by The Division of Aids, National Institute of Allergy and Infectious Diseases, National Institutes of Health and Collaborating Investigators, Version January 1997).

[3] = system: chronically HIV-1 infected H9 cells; experiment: Co-cultivation study with chronically HIV-1 infected H9 cells
Excerpt: Viral pathogenesis in co-cultivation of infected cells with uninfected target cells presents a complex system with several target sites (attachment, fusion, transcription, processing, packaging and budding).
In many documented antiretroviral studies, the co-culture system is conventionally used to isolate the virus as well as to study cell-to-cell transmission or to determine if a given compound blocks cell fusion. H2K1001 and/or 90I may use aggressive intervention that could possibly be directed to at least one of a late phase, early fusion and/or attachment, and both early and late. However, judging from the variety of 90I results, early and late mode of action is consistent to this compound.

Which “amount of gamma interferon produced” value [1] does the source give for `O=C(OCCOCCOC(=O)c1ccccc1)c1ccccc1` [90I, diethylene glycol dibenzoate] here?
Its value is “equivalent to that of the positive control”.

And the “Efficacy % p24 Reduction” value (HIV-1 (P2); 0.01 ug/ml)?
Its value is 23%.

What about the “p24 testing data, mean reading” value (HIV-1 (P2); 0.01 ug/ml) of the same compound?
Its value is 2.2023.

And the “p24 testing data, single readings” value (HIV-1 (P2); 0.01 ug/ml)?
The value was 2.100 and 2.2130 and 2.2937.

And the “Efficacy % p24 Reduction” value (HIV-1 (P2); 0.03 ug/ml)?
The value was 25%.

And the “p24 testing data, mean reading” value (HIV-1 (P2); 0.03 ug/ml)?
The value was 2.1373.

What about the “p24 testing data, single readings” value (HIV-1 (P2); 0.03 ug/ml) of the same compound?
The value was 2.1210 and 1.9460 and 2.3450.

And the “Efficacy % p24 Reduction” value (HIV-1 (P2); 0.10 ug/ml)?
Its value is 36%.

And the “p24 testing data, mean reading” value (HIV-1 (P2); 0.10 ug/ml)?
Its value is 1.8337.

What about the “p24 testing data, single readings” value (HIV-1 (P2); 0.10 ug/ml) of the same compound?
Its value is 1.9461 and 1.8101 and 1.7450.

What about the “Efficacy % p24 Reduction” value (HIV-1 (P2); 0.33 ug/ml) of the same compound?
Its value is 36%.

What about the “p24 testing data, mean reading” value (HIV-1 (P2); 0.33 ug/ml) of the same compound?
The value was 1.8344.

And the “p24 testing data, single readings” value (HIV-1 (P2); 0.33 ug/ml)?
Its value is 1.9451 and 1.7120 and 1.8460.

What about the “Efficacy % p24 Reduction” value (HIV-1 (P2); 1 ug/ml) of the same compound?
Its value is 53%.

And the “p24 testing data, mean reading” value (HIV-1 (P2); 1 ug/ml)?
The value was 1.3316.

What about the “p24 testing data, single readings” value (HIV-1 (P2); 1 ug/ml) of the same compound?
Its value is 1.4266 and 1.4567 and 1.1116.

What about the “p24 testing data, mean reading” value (HIV-1 (P2); 3 ug/ml) of the same compound?
The value was 0.3713.

What about the “Efficacy % p24 Reduction” value (HIV-1 (P2); 3 ug/ml (3.2 in Table 11)) of the same compound?
Its value is 87%.

What about the “p24 testing data, single readings” value (HIV-1 (P2); 3 ug/ml) of the same compound?
The value was 0.4510 and 0.3219 and 0.3410.

And the “Efficacy % p24 Reduction” value (HIV-1 (P2); 10 ug/ml)?
Its value is 95%.

What about the “p24 testing data, mean reading” value (HIV-1 (P2); 10 ug/ml) of the same compound?
Its value is 0.1397.

And the “p24 testing data, single readings” value (HIV-1 (P2); 10 ug/ml)?
Its value is 0.1090 and 0.1220 and 0.1874.

What about the “Efficacy % p24 Reduction” value (HIV-1 (P2); 32 ug/ml) of the same compound?
The value was 94%.

And the “p24 testing data, mean reading” value (HIV-1 (P2); 32 ug/ml)?
Its value is 0.1690.

And the “Efficacy % p24 Reduction” value (HIV-1 (P2); 100 ug/ml)?
The value was 93%.

What about the “p24 testing data, mean reading” value (HIV-1 (P2); 100 ug/ml) of the same compound?
The value was 0.1946.

What about the “p24 testing data, single readings” value (HIV-1 (P2); 100 ug/ml) of the same compound?
The value was 0.1530 and 0.1820 and 0.2488.

And the TI (HIV-1 (P2); HIV-1 P2 in PBMC)?
Its TI is “greater than 125”.

And the EC50 (HIV-1 (P2); HIV-1 P2 clinical isolate in PBMC, read-out: EC50)?
Its EC50 is ~0.8 µg/mL (≈ 2.55 µM).

What about the EC50 (HIV-1 (P2); PBMC, virus printed HIV-IRF, read-out: BC50 (the source's name)) of the same compound?
Its EC50 is 0.8 µg/mL (≈ 2.55 µM).

What about the EC50 ([2]; Human immunodeficiency virus 1, read-out: 50% effective concentration (EC50)) of the same compound?
Its EC50 is 0.03 µg/mL (≈ 0.0954 µM).

And the TI [2]?
The TI was “greater than 4000”.

And the “Efficacy % CC” value (HIV-1 (RF); 0.01 ug/ml)?
The value was 42 % CC.

What about the “Efficacy testing, mean optical density” value (HIV-1 (RF); 0.01 ug/ml) of the same compound?
The value was 1.0282.

What about the “Efficacy testing, optical density of single wells” value (“Efficacy testing, optical density” for short) (HIV-1 (RF); 0.01 ug/ml) of the same compound?
Its value is 0.9892 and 1.0238 and 1.0477.

What about the “Efficacy % CC” value (HIV-1 (RF); 0.03 ug/ml) of the same compound?
Its value is 80 % CC.

And the “Efficacy testing, mean optical density” value (HIV-1 (RF); 0.03 ug/ml)?
The value was 1.9368.

What about the “Efficacy testing, optical density” value (HIV-1 (RF); 0.03 ug/ml) of the same compound?
Its value is 2.0839 and 1.6926 and 2.0343.

And the “Efficacy % CC” value (HIV-1 (RF); 0.1 ug/ml)?
Its value is 87 % CC.

What about the “Efficacy testing, mean optical density” value (HIV-1 (RF); 0.1 ug/ml) of the same compound?
The value was 2.1073.

And the “Efficacy testing, optical density” value (HIV-1 (RF); 0.1 ug/ml)?
The value was 2.2196 and 2.0140 and 2.0883.

And the “Efficacy % CC” value (HIV-1 (RF); 0.3 ug/ml)?
Its value is 83 % CC.

What about the “Efficacy testing, mean optical density” value (HIV-1 (RF); 0.3 ug/ml) of the same compound?
The value was 2.0091.

And the “Efficacy testing, optical density” value (HIV-1 (RF); 0.3 ug/ml)?
Its value is 2.1099 and 1.8158 and 2.1016.

And the “Efficacy % CC” value (HIV-1 (RF); 1 ug/ml)?
Its value is 84 % CC.

What about the “Efficacy testing, mean optical density” value (HIV-1 (RF); 1 ug/ml) of the same compound?
The value was 2.0264.

And the “Efficacy testing, optical density” value (HIV-1 (RF); 1 ug/ml)?
Its value is 2.2771 and 1.9186 and 1.8914.

What about the “Efficacy % CC” value (HIV-1 (RF); 3 ug/ml) of the same compound?
The value was 84 % CC.

What about the “Efficacy testing, mean optical density” value (HIV-1 (RF); 3 ug/ml) of the same compound?
The value was 2.0459.

What about the “Efficacy testing, optical density” value (HIV-1 (RF); 3 ug/ml) of the same compound?
Its value is 2.2499 and 1.9311 and 1.9576.

What about the “Efficacy % CC” value (HIV-1 (RF); 10 ug/ml) of the same compound?
The value was 82 % CC.

What about the “Efficacy testing, mean optical density” value (HIV-1 (RF); 10 ug/ml) of the same compound?
The value was 1.9797.

What about the “Efficacy testing, optical density” value (HIV-1 (RF); 10 ug/ml) of the same compound?
Its value is 2.0385 and 2.0038 and 1.8968.

And the “Efficacy % CC” value (HIV-1 (RF); 33 ug/ml)?
Its value is 86 % CC.

What about the “Efficacy testing, mean optical density” value (HIV-1 (RF); 33 ug/ml) of the same compound?
The value was 2.0805.

And the “Efficacy testing, optical density” value (HIV-1 (RF); 33 ug/ml)?
The value was 2.1945 and 1.9560 and 2.0909.

And the “Efficacy % CC” value (HIV-1 (RF); 100 ug/ml)?
Its value is 88 % CC.

And the “Efficacy testing, mean optical density” value (HIV-1 (RF); 100 ug/ml)?
The value was 2.1221.

What about the “Efficacy testing, optical density” value (HIV-1 (RF); 100 ug/ml) of the same compound?
Its value is 2.2450 and 1.9588 and 2.1625.

And the “therapeutic index (TI=IC50/EC50)” value (HIV-1 (RF); HIV-1 RF in CEM-SS)?
Its value is “greater than 5000”.

What about the EC50 (HIV-1 (RF); Human immunodeficiency virus 1, CEM-SS, read-out: 50% effective concentration (EC50), RF laboratory strain of HIV-1 in CEM-SS) of the same compound?
Its EC50 is ~0.02 µg/mL (≈ 0.0636 µM).

What about the syncytium formation ([3]; co-cultivation) of the same compound?
Its syncytium formation is “drastic drop”.

And the cell viability ([3]; co-cultivation, exponential cell growth)?
Its cell viability is “greater than ninety percent”.

What about the “viral burden (p24) after treatment” value ([3]; co-cultivation, from 1.7 ×10^6 pg of p24) of the same compound?
Its value is 500 pg.

What about the “progression of HIV-1 infection” value ([3]; compared to untreated controls) of the same compound?
The value was “effectively blocked the progression of HIV-1 infection”.

— patent publication US20230321025A1, “METHOD AND COMPOUND FOR THE TREATMENT AND ELIMINATION OF AN IMMUNODEFICIENCY CONDITION” (priority 2020, published 2023)
